# In US20250188075A1, “SUBSTITUTED HETEROCYCLIC CSNK1 INHIBITORS” (The Broad Institute, Inc., priority 2022, published 2025):
# Read-outs that look alike come from different tables or passages of the source.
# Tests used:
# human CSNK1G3 = human CSNK1G3 (Homo sapiens (Human), UniProt Q9Y6M4); test: CSNK1G3 assay (ADP-Glo); format: biochemical; conditions: median, read-out: CSNK1G IC50 [mol/l] (median)
# Method: CSNK1G3-inhibitory activity of compounds of the present invention in presence of 1 μM adenosine-tri-phosphate (ATP) was quantified employing the CSNK1G3 assay as described in the following paragraphs. In essence, the enzyme activity is measured by quantification of the adenosine-di-phosphate (ADP), which is generated as a co-product of the enzyme reaction, via the “ADP-Glo™ Kinase Assay” kit from the company Promega. This detection system works as follows: In a first step the ATP not consumed in the kinase reaction is quantitatively converted to CAMP employing an adenylate cyclase (“ADP-Glo-reagent”), then the adenylate cyclase is stopped and the ADP generated in the kinase reaction converted to ATP which generates in a luciferase-based reaction a glow-luminescence signal (“Kinase Detection Reagent”).
# Recombinant fusion protein of N-terminal Glutathion-S-Transferase (GST) and full-length human CSNK1G3, expressed by baculovirus infected insect cells and purified via Glutathion affinity chromatography, was purchased from Life Technologies (product no. PV3838) and used as enzyme. As substrate for the kinase reaction the biotinylated peptide biotin-Ahx-KRRRAL-pS-VASLPGL (C-terminus in amide form) was used which can be purchased e.g. from the company Biosyntan (Berlin-Buch, Germany).
# For the assay 50 nl of a 100 fold concentrated solution of the test compound in DMSO was pipetted into a white 1536-well microtiter plate (Greiner Bio-One, Frickenhausen, Germany), 2 μL of a solution of CSNK1G3 in aqueous assay buffer [50 mM HEPES pH 7.5, 10% (v/v) glycerol, 10 mM MgCl2, 50 mM NaCl, 1 mM dithiothreitol, 0.01% (w/v) bovine serum albumin, 0.01% (v/v) Triton X-100] were added and the mixture was incubated for 15 min at 22° C. to allow pre-binding of the test compounds to the enzyme before the start of the kinase reaction. Then the kinase reaction was started by the addition of 3 μL of a solution of ATP ([…]=>final conc. in the 5 μL assay volume is 1 M) and peptide substrate (50 μM=>final conc. in the 5 μL assay volume is 30 μM) in assay buffer and the resulting mixture was incubated for a reaction time of 30 min at 22° C. The concentration of CSNK1G3 was adjusted depending of the activity of the enzyme lot and was chosen appropriate to have the assay in the linear range, a typical concentration is about 0.06 ng/μL. The reaction was stopped by the addition of 2.5 μL of “ADP-Glo-reagent” (1:1.5 fold diluted with water) and the resulting mixture was incubated at 22° C. for 1 h to convert the ATP not consumed in the kinase reaction completely to CAMP. Subsequently 2.5 μL of the “kinase detection reagent” (1.2 fold more concentrated than recommended by the producer) were added, the resulting mixture was incubated at 22° C. for 1 h and then the luminescence measured with a suitable measurement instrument (e.g. Viewlux™ from Perkin-Elmer). The amount of emitted light was taken as a measure for the amount of ADP generated and thereby for the activity of the CSNK1G3.
# The data were normalised (enzyme reaction without inhibitor=0% inhibition, all other assay components but no enzyme=100% inhibition).
# total-p53 in MCF-7 cells = test: HTRF total-p53 in MCF-7 cells; format: cell-based; conditions: median, read-out: HTRF total-p53 MCF-7, IC50 - [mol/l] (median)
# Method: Day 1: MCF-7 cells were seeded (10,000 cells in 12 μl/well) in a 384-well-Small Volume-plate (Greiner Bio One #784075) in culture medium (RPMI 1640; (Biochrom; #F 1275; without PhenolRed)+FCS (final: 10%); (Biochrom; #S 0415)+Insulin (bovine); (final: 10 μg/mL, Biochrom; #K 3510)+L-Alanyl-L-Glutamine; (final: 2 mM, Biochrom; #K 0302)+Natriumpyruvat; (final: 1 mM, Biochrom; #L 0473)+Non Essentiell Amino Acids; (final: 1×, Biochrom; #K 0293)). The cells were then treated with different compounds or DMSO (added with the HP Dispenser) and incubated for 2 h at 37° C. Following incubation, the cells were lysed in 4 μl of lysis buffer for 1 h shaking at RT. Finally, 4 μl of antibody solution was added and the samples are incubated overnight at RT, shaking.
# Total-p53 was detected in a sandwich assay format using 2 different specific antibodies, one labeled with Eu3+-Cryptate (donor) and the second with d2 (acceptor). Kit: HTRF total p53 detection assay (Cisbio Cat: 64T53PEG).
# Day 2: the plate was read on PHERAstar FS (BMG Labtech settings; optic module: HTRF; integration start: 60 us; integration time: 400 μs; flash lamp). IC50 values were calculated using the DRC application in ShiNy Analysis Platform-SNAP.”
# LoVo cells = test: LoVo cell proliferation assay, CTG method; format: cell-based; conditions: 96 h, median, read-out: 2D-PROLI LoVo CTG 96 h, IC50 - [mol/l] (median)
# Method: CELL PROLIFERATION ASSAY CTG METHOD, 384-well version: Day 1: plate 400 cells/30 μL/well in growth medium (RPMI 1640 (Gibco #61870-10; with Glutamax)+10% FBS) in 384-well black plates (Corning #3571). Plated sister wells in a separate plate for time zero determination. Incubated all plates overnight at 37° C. Day 2: added test compounds in serial dilutions using the HP D300 Digital Dispenser and incubate at 37° C. for 96 h. Measured time zero plate: add 30 μL/well CTG solution (Promega CellTiter-Glo solution (catalog #G7573)) to wells in time zero plate; incubated for 2 minutes in a orbital shaker to induce cell lysis; allowed the plate to incubate at room temperature for additional 10 min to stabilize luminescent signal and read luminescence on PheraStar (rapid mode-0.02 sec/well; GAIN 3000). Day 6: Added 30 μL/well CTG solution to all test wells, incubated for 2 minutes in a orbital shaker to induce cell lysis; allowed the plate to incubate at room temperature for additional 10 min to stabilize luminescent signal and read luminescence on PheraStar (rapid mode-0.02 sec/well; GAIN 3000). Proliferation IC50s were calculated using the DRC application in ShiNy Analysis Platform-SNAP.”
# [1] = Homo sapiens, MCF7, 2 h incubation
# Chain of human CSNK1G3 (Q9Y6M4 whole entry): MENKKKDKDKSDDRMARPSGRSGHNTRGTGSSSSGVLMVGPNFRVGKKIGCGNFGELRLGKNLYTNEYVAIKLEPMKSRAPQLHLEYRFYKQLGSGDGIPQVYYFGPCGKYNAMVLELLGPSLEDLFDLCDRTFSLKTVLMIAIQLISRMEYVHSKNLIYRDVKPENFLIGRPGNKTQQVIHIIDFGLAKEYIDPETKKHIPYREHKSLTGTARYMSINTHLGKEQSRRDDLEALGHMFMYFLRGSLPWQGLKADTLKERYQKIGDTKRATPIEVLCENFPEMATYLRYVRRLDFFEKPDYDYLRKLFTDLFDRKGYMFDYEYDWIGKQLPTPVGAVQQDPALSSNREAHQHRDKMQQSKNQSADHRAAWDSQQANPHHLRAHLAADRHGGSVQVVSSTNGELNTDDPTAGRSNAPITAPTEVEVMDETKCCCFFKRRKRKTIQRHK
IC50 (human CSNK1G3),IC50 (total-p53 in MCF-7 cells; [1]),IC50 (LoVo cells; Homo sapiens),IC50 (total-p53 in MCF-7 cells; 2 h incubation),IC50 (LoVo cells),Structure (SMILES)
20.4 nM,129 nM,636 nM,–,–,"CC(C)n1ccc(CC(=O)Nc2cc(-c3[nH]c4cccnc4c3-c3ccccn3)ccn2)n1 [Example 28, 2-(1-isopropylpyrazol-3-yl)-N-[4-[3-(2-pyridyl)-^1H-pyrrolo[3,2-b]pyridin-2-yl]-2-pyridyl]acetamide]"
10.3 nM,69.3 nM,192 nM,–,–,"O=C(Cc1cc2ccccn2n1)Nc1cc(-c2[nH]c3cccnc3c2-c2ccccn2)ccn1 [Example 15, 2-pyrazolo[1,5-a]pyridin-2-yl-N-[4-[3-(2-pyridyl)-^1H-pyrrolo[3,2-b]pyridin-2-yl]-2-pyridyl]acetamide]"
29.7 nM,96.9 nM,427 nM,–,–,"Cn1nc(CC(=O)Nc2cc(-c3[nH]c4cccnc4c3-c3ccccn3)ccn2)cc1C(F)(F)F [Example 21, 2-[1-methyl-5-(trifluoromethyl)pyrazol-3-yl]-N-[4-[3-(2-pyridyl)-^1H-pyrrolo[3,2-b]pyridin-2-yl]-2-pyridyl]acetamide]"
102 nM,264 nM,8410 nM,–,–,"Cn1cc(CC(=O)Nc2cc(-c3[nH]c4cccnc4c3-c3ccccn3)ccn2)cn1 [Example 2, 2-(1-methylpyrazol-4-yl)-N-[4-[3-(2-pyridyl)-^1H-pyrrolo[3,2-b]pyridin-2-yl]-2-pyridyl]acetamide]"
15.4 nM,56.6 nM,1130 nM,–,–,"Cc1nc(C)c(CC(=O)Nc2cc(-c3[nH]c4cccnc4c3-c3ccccn3)ccn2)s1 [Example 18, 2-(2,4-dimethylthiazol-5-yl)-N-[4-[3-(2-pyridyl)-^1H-pyrrolo[3,2-b]pyridin-2-yl]-2-pyridyl]acetamide]"
51.2 nM,210 nM,4070 nM,–,–,"Cc1nn(C)cc1CC(=O)Nc1cc(-c2[nH]c3cccnc3c2-c2ccccn2)ccn1 [Example 9, 2-(1,3-dimethylpyrazol-4-yl)-N-[4-[3-(2-pyridyl)-^1H-pyrrolo[3,2-b]pyridin-2-yl]-2-pyridyl]acetamide]"
68.9 nM,226 nM,10500 nM,–,–,"Cc1nocc1CC(=O)Nc1cc(-c2[nH]c3cccnc3c2-c2ccccn2)ccn1 [Example 30, 2-(3-methylisoxazol-4-yl)-N-[4-[3-(2-pyridyl)-^1H-pyrrolo[3,2-b]pyridin-2-yl]-2-pyridyl]acetamide]"
27.3 nM,120 nM,5410 nM,–,–,"O=C(Cc1ccno1)Nc1cc(-c2[nH]c3cccnc3c2-c2ccccn2)ccn1 [Example 23, 2-isoxazol-5-yl-N-[4-[3-(2-pyridyl)-^1H-pyrrolo[3,2-b]pyridin-2-yl]-2-pyridyl]acetamide]"
31.7 nM,193 nM,1500 nM,–,–,"Cc1cc(CC(=O)Nc2cc(-c3[nH]c4cccnc4c3-c3ccccn3)ccn2)nn1C [Example 16, 2-(1,5-dimethylpyrazol-3-yl)-N-[4-[3-(2-pyridyl)-^1H-pyrrolo[3,2-b]pyridin-2-yl]-2-pyridyl]acetamide]"
26.5 nM,176 nM,2100 nM,–,–,"Cc1cc(CC(=O)Nc2cc(-c3[nH]c4cccnc4c3-c3ccccn3)ccn2)no1 [Example 26, 2-(5-methylisoxazol-3-yl)-N-[4-[3-(2-pyridyl)-^1H-pyrrolo[3,2-b]pyridin-2-yl]-2-pyridyl]acetamide]"
19.7 nM,169 nM,749 nM,–,–,"O=C(Cc1cc(C2CC2)on1)Nc1cc(-c2[nH]c3cccnc3c2-c2ccccn2)ccn1 [Example 27, 2-(5-cyclopropylisoxazol-3-yl)-N-[4-[3-(2-pyridyl)-^1H-pyrrolo[3,2-b]pyridin-2-yl]-2-pyridyl]acetamide]"
6.22 nM,–,–,97.9 nM,115 nM,"O=C(Nc1cc(-c2[nH]c3c(OCC(F)F)ncnc3c2-c2ccccn2)ccn1)[C@@H](CC(F)F)c1ccc(F)cc1 [Example C3, reference compound]"
62.6 nM,205 nM,6810 nM,–,–,"Cc1noc(C)c1CC(=O)Nc1cc(-c2[nH]c3cccnc3c2-c2ccccn2)ccn1 [Example 12, 2-(3,5-dimethylisoxazol-4-yl)-N-[4-[3-(2-pyridyl)-^1H-pyrrolo[3,2-b]pyridin-2-yl]-2-pyridyl]acetamide]"
6.54 nM,–,–,72.8 nM,211 nM,"O=C(Nc1cc(-c2[nH]c3nccnc3c2-c2ccccn2)ccn1)[C@@H](CC(F)F)c1ccc(F)cc1 [Example C1, reference compound]"
68.2 nM,198 nM,5660 nM,–,–,"Cc1nn(C)c(C)c1CC(=O)Nc1cc(-c2[nH]c3cccnc3c2-c2ccccn2)ccn1 [Example 17, N-[4-[3-(2-pyridyl)-^1H-pyrrolo[3,2-b]pyridin-2-yl]-2-pyridyl]-2-(1,3,5-trimethylpyrazol-4-yl)acetamide]"
33 nM,262 nM,3240 nM,–,–,"O=C(Cc1ccon1)Nc1cc(-c2[nH]c3cccnc3c2-c2ccccn2)ccn1 [Example 10, 2-isoxazol-3-yl-N-[4-[3-(2-pyridyl)-^1H-pyrrolo[3,2-b]pyridin-2-yl]-2-pyridyl]acetamide]"
62.7 nM,407 nM,5500 nM,–,–,"Cn1cc(C(CC(F)F)C(=O)Nc2cc(-c3[nH]c4cccnc4c3-c3ccccn3)ccn2)cn1 (centres unmarked) [Example 19, 4,4-difluoro-2-(1-methylpyrazol-4-yl)-N-[4-[3-(2-pyridyl)-^1H-pyrrolo[3,2-b]pyridin-2-yl]-2-pyridyl]butanamide]"
120 nM,375 nM,3320 nM,–,–,"Cc1ocnc1CC(=O)Nc1cc(-c2[nH]c3cccnc3c2-c2ccccn2)ccn1 [Example 11, 2-(5-methyloxazol-4-yl)-N-[4-[3-(2-pyridyl)-^1H-pyrrolo[3,2-b]pyridin-2-yl]-2-pyridyl]acetamide]"
–,137 nM,3130 nM,–,–,O=C(Cc1cnco1)Nc1cc(-c2[nH]c3cccnc3c2-c2ccccn2)ccn1 [Example 4]
